The text below walks through data of patent publication US11149023B2, “Substituted triazole derivatives and uses thereof” (Bayer Pharma Aktiengesellschaft, priority 2017, dated 2021).

What is called IC50 is the concentration that gives 50% inhibition.

The target of one assay is human V1a receptor (Homo sapiens (Human), UniProt P37288). Nature of the assay: Cellular in vitro assay for determining vasopressin receptor activity (V1a, aequorin luminescence). The settings on record: for IC50: CHO cell line transfected with human V1a receptor, [Arg8]-vasopressin at EC50 concentration, read-out: IC50 hV1a; for ratio IC50 hV2/hV1a: selectivity, IC50 hV2 divided by IC50 hV1a. Format: cell-based. On the procedure:
(§1) B-1. Cellular In Vitro Assay for Determining Vasopressin Receptor Activity
(§2) The identification of agonists and antagonists of the V1a and V2 vasopressin receptors from humans, rats and dogs as well as the quantification of the activity of the compounds of the invention is carried out using recombinant cell lines. These cell lines originally derive from a hamster's ovary epithelial cell (Chinese Hamster Ovary, CHO K1, ATCC: American Type Culture Collection, Manassas, Va. 20108, USA). The test cell lines constitutively express the human, rat or dog V1a or V2 receptors. In case of the Gαq-coupled V1a receptors, cells are also stably transfected with a modified form of the calcium-sensitive photoproteins aequorin (human and rat V1a) or obe-lin (dog V1a), which, after reconstitution with the cofactor coelenterazine, emit light when there are increases in free calcium concentrations [Rizzuto R, Simpson A W, Brini M, Pozzan T, Nature 358, 325-327 (1992); Illarionov B A, Bondar V S, Illarionova V A, Vysotski E S, Gene 153 (2), 273-274 (1995)]. The resulting vasopressin receptor cells react to stimulation of the recombinantly expressed Via receptors by intracellular release of calcium ions, which can be quantified by the resulting photoprotein luminescence. The Gs-coupled V2 receptors are stably transfected into cell lines expressing the gene for firefly luciferase under control of a CRE-responsible promoter. Activation of V2 receptors induces the activation of the CRE-responsive promoter via cAMP increase, thereby inducing the expression of firefly luciferase. The light emitted by photoproteins of V1a cell lines as well as the light emitted by firefly luciferase of V2 cell lines corresponds to the activation or inhibition of the respective vasopressin receptor. The bioluminescence of the cell lines is detected using a suitable luminometer [Milligan G, Marshall F, Rees S, Trends in Pharmacological Sciences 17, 235-237 (1996)].
Vasopressin V1a Receptor Cell Lines:
On the day before the assay, the cells are plated out in culture medium (DMEM/F12, 2% FCS, 2 mM glutamine, 10 mM HEPES, 5 μg/ml coelenterazine) in 384-well microtiter plates and kept in a cell incubator (96% humidity, 5% v/v CO2, 37° C.). On the day of the assay, test compounds in various concentrations are placed for 10 minutes in the wells of the microtiter plate before the agonist [Arg^8]-vasopressin at EC50 concentration is added. The resulting light signal is measured immediately in a luminometer.
(§3) Table 1A below lists individual IC50 values for the compounds of the invention (including racemic mixtures as well as separated enantiomers) that were obtained from cell lines transfected with the human Via or V2 receptor: […]

The next assay has as its target human V2 receptor (Homo sapiens (Human), UniProt P30518). Put plainly: Cellular in vitro assay for determining vasopressin receptor activity (V2, CRE-luciferase). Format: cell-based. The settings on record: CHO cell line transfected with human V2 receptor; [Arg8]-vasopressin at EC50 concentration; read-out: IC50 hV2. The protocol: as §1, §2
Vasopressin V2 Receptor Cell Lines:
On the day before the assay, the cells are plated out in culture medium (DMEM/F12, 2% FCS, 2 mM glutamine, 10 mM HEPES) in 384-well microtiter plates and kept in a cell incubator (96% humidity, 5% v/v CO2, 37° C.). On the day of the assay, test compounds in various concentrations and the agonist [Arg^8]-vasopressin at EC50 concentration are added together to the wells, and plates are incubated for 3 hours in a cell incubator. Upon addition of the cell lysis reagent Triton™ and the substrate luciferin, luminescence of firefly luciferase is measured in a luminometer.
as §3

human V2 receptor, sequence (P30518 whole entry): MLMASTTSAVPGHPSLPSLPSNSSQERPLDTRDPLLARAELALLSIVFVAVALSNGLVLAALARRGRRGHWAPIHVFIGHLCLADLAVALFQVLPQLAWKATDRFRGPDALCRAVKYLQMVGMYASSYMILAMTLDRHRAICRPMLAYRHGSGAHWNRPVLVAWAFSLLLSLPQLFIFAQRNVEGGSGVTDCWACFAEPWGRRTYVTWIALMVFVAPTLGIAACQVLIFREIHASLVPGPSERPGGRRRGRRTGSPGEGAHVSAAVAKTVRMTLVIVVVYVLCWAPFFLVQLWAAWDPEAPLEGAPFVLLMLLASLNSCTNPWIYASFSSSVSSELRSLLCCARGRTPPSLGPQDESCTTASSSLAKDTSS
human V1a receptor, sequence (P37288 whole entry): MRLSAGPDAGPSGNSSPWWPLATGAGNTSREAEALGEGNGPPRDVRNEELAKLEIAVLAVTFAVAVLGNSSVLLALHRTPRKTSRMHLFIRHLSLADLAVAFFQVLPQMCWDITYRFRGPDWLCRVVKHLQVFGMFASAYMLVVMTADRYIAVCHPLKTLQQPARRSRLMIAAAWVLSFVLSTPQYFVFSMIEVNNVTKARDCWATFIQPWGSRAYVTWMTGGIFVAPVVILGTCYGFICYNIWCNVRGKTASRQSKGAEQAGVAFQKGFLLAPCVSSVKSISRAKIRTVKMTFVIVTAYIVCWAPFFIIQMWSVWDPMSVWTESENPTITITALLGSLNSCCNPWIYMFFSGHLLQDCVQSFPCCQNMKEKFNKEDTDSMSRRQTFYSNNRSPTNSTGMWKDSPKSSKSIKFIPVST

As for `O=C(NC(Cn1c(-c2ccc(Cl)cc2)nn(Cc2ncn(-c3ncccc3Cl)n2)c1=O)C(F)(F)F)C1CC(F)(F)CN1` (stereo not shown) [Example 53, N-{3-[3-(4-Chlorophenyl)-1-{[1-(3-chloropyridin-2-yl)-1H-1,2,4-triazol-3-yl]methyl}-5-oxo-1,5-dihydro-4H-1,2,4-triazol-4-yl]-1,1,1-trifluoropropan-2-yl}-4,4-difluoro-prolinamide], on human V1a receptor, the concentration for half-maximal inhibition (IC50) worked out at 1.6 nM and the “ratio IC50 hV2/hV1a” value is 23.8. Further, at human V2 receptor, the concentration for half-maximal inhibition (IC50) turned out to be 38 nM.

As for `CC(C)(C)OC(=O)NC1(C(=O)NC(Cn2c(-c3ccc(Cl)cc3)nn(Cc3ncn(-c4ncccc4Cl)n3)c2=O)C(F)(F)F)CCC1` (stereo not shown) [Example 28, tert-Butyl [1-({3-[3-(4-chlorophenyl)-1-{[1-(3-chloropyridin-2-yl)-1H-1,2,4-triazol-3-yl]methyl}-5-oxo-1,5-dihydro-4H-1,2,4-triazol-4-yl]-1,1,1-trifluoropropan-2-yl}carbamoyl)cyclobutyl]-carbamate], the figures for the IC50 at human V1a receptor and at human V2 receptor were 1.85 nM and 22.5 nM, respectively.

For `O=C(CC(F)(F)F)NC(Cn1c(-c2ccc(Cl)cc2)nn(Cc2ncn(-c3ncccc3C(F)(F)F)n2)c1=O)C(F)(F)F` (racemic) [Example 67, N-{3-[3-(4-Chlorophenyl)-5-oxo-1-({1-[3-(trifluoromethyl)pyridin-2-yl]-1H-1,2,4-triazol-3-yl}methyl)-1,5-dihydro-4H-1,2,4-triazol-4-yl]-1,1,1-trifluoropropan-2-yl}-3,3,3-trifluoropropanamide], the IC50 at human V1a receptor was 1.15 nM; at human V2 receptor it was 57 nM. Moreover, the “ratio IC50 hV2/hV1a” value at human V1a receptor was 49.6.

As to `O=C(NC(Cn1c(-c2ccc(Cl)cc2)nn(Cc2ncn(-c3ncccc3C(F)(F)F)n2)c1=O)C(F)(F)F)C1(C(F)(F)F)CC1` (racemic) [Example 58, N-{3-[3-(4-Chlorophenyl)-5-oxo-1-({1-[3-(trifluoromethyl)pyridin-2-yl]-1H-1,2,4-triazol-3-yl}methyl)-1,5-dihydro-4H-1,2,4-triazol-4-yl]-1,1,1-trifluoropropan-2-yl}-1-(trifluoromethyl)cyclopropane-1-carboxamide], the values for the IC50 at human V1a receptor and at human V2 receptor were 3 nM and 120 nM, respectively. Besides, the “ratio IC50 hV2/hV1a” value at human V1a receptor is on record as 40.2.

On to `O=C(NC(Cn1c(-c2ccc(Cl)cc2)nn(Cc2ncn(-c3ncccc3Cl)n2)c1=O)C(F)(F)F)C1COC1` (racemic) [Example 1, N-{3-[3-(4-Chlorophenyl)-1-{[1-(3-chloropyridin-2-yl)-1H-1,2,4-triazol-3-yl]methyl}-5-oxo-1,5-dihydro-4H-1,2,4-triazol-4-yl]-1,1,1-trifluoropropan-2-yl}oxetane-3-carboxamide], for which, on human V1a receptor, the IC50 was 4.9 nM and the “ratio IC50 hV2/hV1a” value was determined as 50.0. For the same compound, on human V2 receptor, the IC50 worked out at 245 nM.

On to `Cl.O=C(NC(Cn1c(-c2ccc(Cl)cc2)nn(Cc2ncn(-c3ncccc3C(F)(F)F)n2)c1=O)C(F)(F)F)[C@@H]1C[C@@H](F)CN1` (stereo partly drawn) [Example 70, N-{3-[3-(4-Chlorophenyl)-5-oxo-1-({1-[3-(trifluoromethyl)pyridin-2-yl]-1H-1,2,4-triazol-3-yl}methyl)-1,5-dihydro-4H-1,2,4-triazol-4-yl]-1,1,1-trifluoropropan-2-yl}-4-fluoro-L-prolinamide], for which, at human V1a receptor, the IC50 was 6.35 nM and the “ratio IC50 hV2/hV1a” value was 70.1. Moreover, the half-inhibitory concentration (IC50) at human V2 receptor is 445 nM.

Turning to `CC(C)(O)C(=O)NC(Cn1c(-c2ccc(Cl)cc2)nn(Cc2ncn(-c3ncccc3Cl)n2)c1=O)C(F)(F)F` (racemic) [Example 17, N-{3-[3-(4-Chlorophenyl)-1-{[1-(3-chloropyridin-2-yl)-1H-1,2,4-triazol-3-yl]methyl}-5-oxo-1,5-dihydro-4H-1,2,4-triazol-4-yl]-1,1,1-trifluoropropan-2-yl}-2-hydroxy-2-methylpropanamide], the IC50 amounted to 9.55 nM at human V1a receptor and 280 nM on human V2 receptor. Also, on human V1a receptor, the “ratio IC50 hV2/hV1a” value worked out at 29.3.

For `Cl.O=C(NC(Cn1c(-c2ccc(Cl)cc2)nn(Cc2ncn(-c3ncccc3C(F)(F)F)n2)c1=O)C(F)(F)F)[C@@H]1C[C@H](F)CN1` (stereo partly drawn) [Example 71, N-{3-[3-(4-Chlorophenyl)-5-oxo-1-({1-[3-(trifluoromethyl)pyridin-2-yl]-1H-1,2,4-triazol-3-yl}methyl)-1,5-dihydro-4H-1,2,4-triazol-4-yl]-1,1,1-trifluoropropan-2-yl}-4-fluoro-L-prolinamide], at human V1a receptor, the IC50 was 4.9 nM and the “ratio IC50 hV2/hV1a” value is 56.1. Further, the half-inhibitory concentration (IC50) on human V2 receptor amounted to 275 nM.

With `O=C(CN1CCOC1=O)NC(Cn1c(-c2ccc(Cl)cc2)nn(Cc2ncn(-c3ncccc3Cl)n2)c1=O)C(F)(F)F` (racemic) [Example 20, N-{3-[3-(4-Chlorophenyl)-1-{[1-(3-chloropyridin-2-yl)-1H-1,2,4-triazol-3-yl]methyl}-5-oxo-1,5-dihydro-4H-1,2,4-triazol-4-yl]-1,1,1-trifluoropropan-2-yl}-2-(2-oxo-1,3-oxazolidin-3-yl)acetamide], at human V1a receptor, the IC50 is 8.9 nM and the “ratio IC50 hV2/hV1a” value came out at 58.4. On human V2 receptor, the IC50 is 520 nM.

Take `CC(C)(C)OC(=O)NC1(C(=O)NC(Cn2c(-c3ccc(Cl)cc3)nn(Cc3ncn(-c4ncccc4Cl)n3)c2=O)C(F)(F)F)CC1` (racemic) [Example 26, tert-Butyl [1-({3-[3-(4-chlorophenyl)-1-{[1-(3-chloropyridin-2-yl)-1H-1,2,4-triazol-3-yl]methyl}-5-oxo-1,5-dihydro-4H-1,2,4-triazol-4-yl]-1,1,1-trifluoropropan-2-yl}carbamoyl)cyclopropyl]-carbamate]: at human V1a receptor, the IC50 was found to be 9.15 nM and the “ratio IC50 hV2/hV1a” value is given as 9.0. Besides, the IC50 at human V2 receptor worked out at 82.5 nM.

As to `CS(=O)(=O)CC(=O)NC(Cn1c(-c2ccc(Cl)cc2)nn(Cc2ncn(-c3ncccc3Cl)n2)c1=O)C(F)(F)F` (single isomer, unassigned) [Example 46, N-{3-[3-(4-Chlorophenyl)-1-{[1-(3-chloropyridin-2-yl)-1H-1,2,4-triazol-3-yl]methyl}-5-oxo-1,5-dihydro-4H-1,2,4-triazol-4-yl]-1,1,1-trifluoropropan-2-yl}-2-(methylsulfonyl)acetamide], the figures for the IC50 on human V1a receptor and on human V2 receptor were 1.35 nM and 57.8 nM, respectively.

For `CC(F)C(=O)NC(Cn1c(-c2ccc(Cl)cc2)nn(Cc2ncn(-c3ncccc3Cl)n2)c1=O)C(F)(F)F` (stereo not shown) [Example 10], on human V1a receptor, the IC50 was 6.1 nM and the “ratio IC50 hV2/hV1a” value is 59.8. Moreover, the IC50 at human V2 receptor stood at 365 nM.

On to `O=C(NC(Cn1c(-c2ccc(Cl)cc2)nn(Cc2ncn(-c3ncccc3Cl)n2)c1=O)C(F)(F)F)C1CCS(=O)(=O)C1` (stereo not shown) [Example 30, N-{3-[3-(4-Chlorophenyl)-1-{[1-(3-chloropyridin-2-yl)-1H-1,2,4-triazol-3-yl]methyl}-5-oxo-1,5-dihydro-4H-1,2,4-triazol-4-yl]-1,1,1-trifluoropropan-2-yl}tetrahydrothiophene-3-carboxamide 1,1-dioxide], for which, at human V1a receptor, the IC50 stood at 6.3 nM and the “ratio IC50 hV2/hV1a” value is 33.9. Moreover, the IC50 at human V2 receptor was 213 nM.

`N#CCC(=O)NC(Cn1c(-c2ccc(Cl)cc2)nn(Cc2ncn(-c3ncccc3Cl)n2)c1=O)C(F)(F)F` (racemic) [Example 5, N-{3-[3-(4-Chlorophenyl)-1-{[1-(3-chloropyridin-2-yl)-1H-1,2,4-triazol-3-yl]methyl}-5-oxo-1,5-dihydro-4H-1,2,4-triazol-4-yl]-1,1,1-trifluoropropan-2-yl}-2-cyanoacetamide]: at human V1a receptor, the IC50 turned out to be 10.6 nM and the “ratio IC50 hV2/hV1a” value is recorded as 56.4. Besides, the IC50 on human V2 receptor is 595 nM.
